{
  "source": "patent US8309097B2",
  "about": "“C-type lectin binding molecules, identification and uses thereof” (Vereniging voor Christelijk Wetenschappelijk Onderwijs, priority 2002, dated 2012)",
  "key": {"[1]": {"target": "T1, DC-SIGN on immature monocyte derived DC (Homo sapiens, UniProt Q9NNX6)", "T1 construct": "Immature DC were cultured from monocytes in the presence of IL-4 and GM-CSF; endogenous in cells; host or cells: immature monocyte-derived dendritic cells", "T1 sequence (Q9NNX6 1-404)": "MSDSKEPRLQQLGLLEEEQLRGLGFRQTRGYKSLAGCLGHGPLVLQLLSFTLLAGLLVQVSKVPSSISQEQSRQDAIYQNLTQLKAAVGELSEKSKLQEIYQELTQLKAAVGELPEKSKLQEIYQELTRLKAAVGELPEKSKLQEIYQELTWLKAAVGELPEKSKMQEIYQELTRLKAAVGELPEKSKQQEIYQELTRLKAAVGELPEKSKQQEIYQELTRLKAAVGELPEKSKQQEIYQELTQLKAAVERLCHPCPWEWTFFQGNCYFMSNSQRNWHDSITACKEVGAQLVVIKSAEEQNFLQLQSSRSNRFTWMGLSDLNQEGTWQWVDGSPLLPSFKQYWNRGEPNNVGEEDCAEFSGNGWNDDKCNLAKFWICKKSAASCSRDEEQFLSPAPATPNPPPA", "experiment": "Fluorescent bead adhesion assay, immature DC", "type": "cell-based"}, "[2]": {"test_system": "granulocytes", "experiment": "DC-SIGN-Fc adhesion to granulocytes"}, "[3]": {"target": "T2, DC-SIGN-Fc (Homo sapiens, UniProt Q9NNX6)", "T2 sequence (Q9NNX6 64-404)": "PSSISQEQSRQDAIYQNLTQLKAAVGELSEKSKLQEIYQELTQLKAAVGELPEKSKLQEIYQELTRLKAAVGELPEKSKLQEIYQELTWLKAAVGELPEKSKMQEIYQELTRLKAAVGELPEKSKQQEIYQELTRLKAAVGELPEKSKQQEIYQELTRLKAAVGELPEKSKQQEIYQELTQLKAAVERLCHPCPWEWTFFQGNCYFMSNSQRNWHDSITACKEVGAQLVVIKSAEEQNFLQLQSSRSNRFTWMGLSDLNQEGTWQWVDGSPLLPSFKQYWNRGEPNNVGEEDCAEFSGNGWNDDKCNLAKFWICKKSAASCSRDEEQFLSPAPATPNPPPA", "experiment": "Soluble DC-SIGN-Fc adhesion assay (Fc ELISA)"}, "[4]": {"target": "T3, DC-SIGN expressed by K562 transfectants (Homo sapiens, UniProt Q9NNX6)", "T3 construct": "expressed in transfected cells; host or cells: K562", "T3 sequence (Q9NNX6 1-404)": "T1 sequence (Q9NNX6 1-404)", "type": "cell-based"}, "[5]": {"target": "mSIGNR1 (Mus musculus, UniProt Q8CJ91)", "sequence (Q8CJ91 whole entry)": "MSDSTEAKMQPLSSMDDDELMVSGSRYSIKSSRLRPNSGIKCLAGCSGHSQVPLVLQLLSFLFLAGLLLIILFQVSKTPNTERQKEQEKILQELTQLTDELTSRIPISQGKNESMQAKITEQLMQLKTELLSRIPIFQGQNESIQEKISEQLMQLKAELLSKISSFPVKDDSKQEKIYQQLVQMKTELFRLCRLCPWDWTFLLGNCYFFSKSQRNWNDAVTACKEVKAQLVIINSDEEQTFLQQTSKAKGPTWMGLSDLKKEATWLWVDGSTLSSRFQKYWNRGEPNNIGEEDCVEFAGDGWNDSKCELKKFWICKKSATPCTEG", "type": "cell-based, murine"}, "[6]": {"target": "L-SIGN expressed by K562 transfectants (Homo sapiens, UniProt Q9H2X3)", "sequence (Q9H2X3 whole entry, looked up)": "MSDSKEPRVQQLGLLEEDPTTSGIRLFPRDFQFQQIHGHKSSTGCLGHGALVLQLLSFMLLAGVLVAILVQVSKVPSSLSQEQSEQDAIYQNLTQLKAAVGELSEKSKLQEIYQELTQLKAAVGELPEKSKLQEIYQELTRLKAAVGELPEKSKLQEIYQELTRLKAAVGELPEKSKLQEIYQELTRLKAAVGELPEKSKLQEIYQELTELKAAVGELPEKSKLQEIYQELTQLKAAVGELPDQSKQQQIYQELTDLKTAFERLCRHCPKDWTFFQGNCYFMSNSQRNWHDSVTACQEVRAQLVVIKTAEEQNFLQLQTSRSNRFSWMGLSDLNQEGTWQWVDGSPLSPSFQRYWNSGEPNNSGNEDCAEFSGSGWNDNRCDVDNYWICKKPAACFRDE", "type": "cell-based"}, "[7]": {"test_system": "immature DC", "type": "cell-based, human"}, "[8]": {"test_system": "K562 transfectants expressing DC-SIGN", "type": "cell-based, human"}, "[9]": {"target": "T2, DC-SIGN-Fc", "experiment": "Immunoprecipitation and detection with DC-SIGN-Fc", "type": "binding", "conditions": "immunoprecipitation", "text": "FIG. 59. […] Cell-surface proteins are biotinylated and PMNs are lysed. Lane 1. negative control using ICAM-3 Fc to capture by IP proteins. Detection is peroxidase-labeled streptavidin. Lane 2. DC-SIGN-Fc is used to capture ligands biotinylated ligands from lysate; two protein bands are visible, the upper band consists of CD11b and CD66a, whereas the lower consists of CD18. Lane 3. Negative control; no bands are immune precipitated with anti-DC-SIGN antibodies. Lane 4, IP with antibodies against CD66acd; a faint band is visible containing CD66a. Lane 5, IP of CD11b; two bands are visible; the upper band is […] and the lower band is CD18m, which is co-immuneprecipitated with […]. Lane 6. IP with DC-SIGN ligands and detection with anti-CD66acd; CD66a is captured by DC-SIGN Fc. Lane 7. IP with DC-SIGN ligands and detection with anti-CD11b; CD11b is captured by DC-SIGN Fc. Lane 8. Negative control, IP with anti-DC-SIGN antibodies and detection with DC-SIGN-Fc. Lane 9. IP with anti-CD66acd and detection with DC-SIGN Fc; CD66a is bound by DC-SIGN on blot. Lane 10. IP with anti-CD11a and detection with DC-SIGN Fc; CD11a is bound by DC-SIGN on blot.\nImmunoprecipitation. […]"}},
  "note": "“Also recorded” adds a separate entry of the source. Where two headings read alike, the source gives them in different places.",
  "data": [
    {"molecule": "O=C(O)CN(CCOCCOCCN(CC(=O)O)CC(=O)O)CC(=O)O", "note": "[EGTA]", "values": [
      {"measurement": "inhibition of ManLAM binding by immature DC", "setting": "[1]", "result": "block"},
      {"measurement": "inhibition of DC-SIGN-Fc binding to granulocytes", "setting": "[2]", "result": "blocked"},
      {"measurement": "inhibition of DC-SIGN-Fc binding to SEA", "setting": "[3]; coated SEA", "result": "completely inhibited"},
      {"measurement": "inhibition of DC-SIGN-Fc binding to M. tuberculosis and M. bovis BCG", "setting": "[3]; coated whole mycobacteria", "result": "inhibited"}
    ]},
    {"molecule": "sialyl Lewis A", "values": [
      {"measurement": "binding of ligand-coated beads to K562 DC-SIGN transfectants", "setting": "[4]", "result": "bind"},
      {"measurement": "binding of ligand-coated beads to K562 mSIGNR1 transfectants", "setting": "[5]", "result": "bind"}
    ]},
    {"molecule": "[…]-L-fucose", "values": [
      {"measurement": "binding of DC-SIGN-Fc to coated ligand", "setting": "[3]", "result": "lower binding affinity"}
    ]},
    {"molecule": "mannan", "values": [
      {"measurement": "binding of ligand-coated beads to K562 DC-SIGN transfectants", "setting": "[4]", "result": "bind"},
      {"measurement": "inhibition of gp120 binding to DC-SIGN", "setting": "[4]", "result": "inhibited"},
      {"measurement": "inhibition of ManLAM binding by immature DC", "setting": "[1]", "result": "block"},
      {"measurement": "inhibition of SEA binding to DC", "setting": "[1]", "result": "strongly blocked"},
      {"measurement": "binding of ligand-coated beads to K562 L-SIGN transfectants", "setting": "[6]", "result": "bind"},
      {"measurement": "inhibition of gp120 binding to L-SIGN", "setting": "[6]", "result": "inhibited"},
      {"measurement": "binding of ligand-coated beads to K562 mSIGNR1 transfectants", "setting": "[5]", "result": "bind"},
      {"measurement": "inhibition of gp120 binding to mSIGNR1", "setting": "[5]", "result": "inhibited"},
      {"measurement": "inhibition of M. bovis BCG binding/infection of immature DC", "setting": "[7]", "result": "blocked the infection to a similar level as the DC-SIGN antibodies"},
      {"measurement": "inhibition of Neisseria IgtB binding to DC", "setting": "[7]", "result": "partly inhibit"},
      {"measurement": "inhibition of internalization of M. bovis BCG by K562 DC-SIGN transfectants", "setting": "[8]", "result": "blocked"},
      {"measurement": "inhibition of DC-SIGN-Fc binding to granulocytes", "setting": "[2]", "result": "blocked"},
      {"measurement": "binding of DC-SIGN-Fc to coated ligand", "setting": "[3]", "result": "binds"},
      {"measurement": "inhibition of DC-SIGN-Fc binding to M. tuberculosis and M. bovis BCG", "setting": "[3]", "result": "inhibited"}
    ]},
    {"molecule": "sialyl-Le^x", "values": [
      {"measurement": "binding of ligand-coated beads to K562 mSIGNR1 transfectants", "setting": "[5]", "result": "interacts"},
      {"measurement": "binding of DC-SIGN-Fc to coated ligand", "setting": "[3]", "result": "completely abrogates the recognition; also recorded: lower binding affinity"}
    ]},
    {"molecule": "CD11b: Lewis X-expressing CD11b captured from PMN lysate", "values": [
      {"measurement": "binding of ligand-coated beads to K562 DC-SIGN transfectants", "setting": "[4]", "result": "interacted strongly"},
      {"measurement": "binding of DC-SIGN-Fc after α-1,3,4 Fucosidase treatment of the ligand", "setting": "[9]", "result": "abrogated"},
      {"measurement": "binding of DC-SIGN-Fc to coated ligand", "setting": "[3]; ELISA, ligand coated", "result": "high affinity binding"}
    ]},
    {"molecule": "α1->3, α1->6 mannotriose", "values": [
      {"measurement": "binding of ligand-coated beads to K562 DC-SIGN transfectants", "setting": "[4]", "result": "bound similarly to the glycoconjugates as DC-SIGN-Fc"},
      {"measurement": "binding of ligand-coated beads to immature DC", "setting": "[1]", "result": "preferentially bound by DC-SIGN"},
      {"measurement": "binding of DC-SIGN-Fc to coated ligand", "setting": "[3]", "result": "binds; also recorded: high affinity"}
    ]}
  ]
}
